Laboratory results taken from paper PMC10965189, “Phytochemical investigation on the aerial parts of Veratrum versicolor f. viride Nakai and their biological activities” (Turkish Journal of Chemistry, 2023).
Like-named read-outs stand apart in the source and are kept apart here.

How the values were obtained:
mushroom tyrosinase = assay: Tyrosinase inhibition assay; assay type: biochemical; conditions: L-tyrosine, 37 °C 20 min, three experiments, read-out: Tyrosinase inhibitory activity IC50
Procedure: The reaction was carried out in a 0.1 M potassium phosphate buffer (pH 6.5) containing 1.5 mM L-tyrosine and 1250 unit/mL mushroom tyrosinase and the reaction mixture was incubated at 37 °C for 20 min. The test samples were assayed for tyrosinase inhibition by measuring its effect on tyrosinase activity using an ELISA reader at 490 nm. Arbutin was used as a positive control. The inhibitory activity of the sample was expressed as the concentration that inhibits 50% of the enzyme activity (IC50).

[1] = system: B16F10 mouse melanoma cells; assay: Measurement of relative melanin contents in α-MSH-stimulated cells; assay type: cell-based
[2] = target: T1, PPE (porcine pancreas elastase) (Sus scrofa, UniProt P00772); assay: Elastase inhibition assay; assay type: biochemical
T1 construct: from tissue; host or cells: porcine pancreas
T1 sequence (P00772 27-266): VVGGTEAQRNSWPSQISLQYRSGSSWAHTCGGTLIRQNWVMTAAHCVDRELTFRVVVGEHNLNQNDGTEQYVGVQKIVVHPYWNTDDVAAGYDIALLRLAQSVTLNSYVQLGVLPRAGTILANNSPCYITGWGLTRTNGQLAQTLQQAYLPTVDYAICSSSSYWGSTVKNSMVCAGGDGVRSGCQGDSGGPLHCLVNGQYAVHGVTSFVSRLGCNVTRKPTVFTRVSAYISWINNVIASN
Procedure: The reaction was carried out in a 50 mM Tris-HCl buffer (pH 8.5) containing 1 mg/mL N-succinyl-(Ala)3-p-nitroanilide and 0.6 U/mL PPE (porcine pancreas elastase). The test sample was added to the reaction mixture, and elastase inhibition was incubated at 25 °C for 10 min. The change in absorbance was measured at 405 nm using an ELISA reader. Ursolic acid was used as a positive control. The inhibitory activity of the sample was expressed as the concentration that inhibits 50% of the enzyme activity (IC50).

[3] = system: B16F10 mouse melanoma cells; assay: Measurement of relative melanin contents in α-MSH-stimulated cells; assay type: cell-based; conditions: for activity at 25 µM / activity at 50 µM / activity at 100 µM / inhibition at 100 µM: Mus musculus, B16-F10; for activity at 25 µM / activity at 50 µM / activity at 100 µM: 100 nM α-MSH, 72 h; for activity at 100 µM / effect on melanin content compared to arbutin: 100 μM; for effect on melanin content compared to arbutin: arbutin 400 μM
Procedure: B16F10 mouse melanoma cells were cultured in DMEM medium containing 10% FBS and 1% penicillin-streptomycin in a 37 °C incubator with 5% CO2. The cells were seeded in 100-mm tissue culture dishes to be used for subsequent experiments.
B16F10 cells (1 × 10^5/well) were seeded in 6 well plates for 24 h. The cells were then incubated in the presence of 100 nM α-MSH, and treated with various concentrations (25, 50, and 100 μM) of sample for 72 h. After being washed twice with PBS, the cells were dissolved of 1 N NaOH and 10% DMSO, incubated at 60 °C for 1 h, and mixed to solubilize the melanin. Relative melanin content was determined with an ELISA reader by absorbance at 405 nm.

[4] = porcine pancreas elastase, N-succinyl-(Ala)3-p-nitroanilide, 25 °C 10 min, three experiments, read-out: Elastase inhibitory activity IC50
[5] = at a concentration of 100 μM, read-out: inhibition of melanogenesis
[6] = in the range of 50 ~ 100 μM, α-MSH-stimulated, read-out: inhibition percentage of melanin production

Compound	IC50 (mushroom tyrosinase) [µM]	IC50 [2, 4] [mM]	activity at 400 µM ([1]; B16-F10, 100 nM α-MSH, 72 h) [%]	inhibition at 400 µM ([1]; B16-F10, α-MSH-stimulated, read-out: inhibition rate of melanin production) [%]	activity at 25 µM [3] [%]	activity at 50 µM [3] [%]	activity at 100 µM [3] [%]	IC50 [2] [mM]	inhibition at 100 µM [3, 5] [%]	effect on melanin content compared to arbutin ([3]; α-MSH-stimulated)	inhibition at 100 µM [3, 6] [%]
Oc1cc(O)cc(/C=C/c2ccc(O)cc2O)c1 [Compound 3, Oxyresveratrol]	6.42 ± 0.45				118 ± 3.73	109 ± 1.96	29.6 ± 2.21	> 1	70.4 to 91		
O=c1cc(-c2ccc(O)c(O)c2)oc2cc(O)cc(O)c12 [Compound 5, Luteolin]	37.9 ± 1.04	0.292 ± 0.0144			18 ± 0.76	16.4 ± 1.65	8.99 ± 0.73		70.4 to 91	greatly decreased	83.5 to 91
COc1cc(-c2cc(=O)c3c(O)cc(O)cc3o2)cc(OC)c1O [Compound 7, Tricin]	> 100	> 1			65.2 ± 1.18	65.4 ± 1.41	56.4 ± 0.89				
COc1cc(C(=O)O)ccc1O [Compound 1, Vanillic acid]		> 1			91.3 ± 4.81	74.78 ± 0.69	64 ± 1.45				
COc1cc(-c2cc(=O)c3c(O)cc(O)cc3o2)ccc1O [Compound 8, Chrysoeriol]					37 ± 4.57	27.3 ± 0.8	23.4 ± 2.19		70.4 to 91	greatly decreased	72.6 to 76.6

Further lines, with some results ahead:

IC50 (mushroom tyrosinase) [µM]	IC50 [2, 4] [mM]	Compound	activity at 400 µM ([1]; B16-F10, 100 nM α-MSH, 72 h) [%]	inhibition at 400 µM ([1]; B16-F10, α-MSH-stimulated, read-out: inhibition rate of melanin production) [%]	activity at 25 µM [3] [%]	activity at 50 µM [3] [%]	activity at 100 µM [3] [%]	IC50 [2] [mM]	inhibition at 100 µM [3, 5] [%]	effect on melanin content compared to arbutin ([3]; α-MSH-stimulated)	inhibition at 100 µM [3, 6] [%]
474 ± 18.2		OC[C@H]1O[C@@H](Oc2ccc(O)cc2)[C@H](O)[C@@H](O)[C@@H]1O [Arbutin]	30.7 ± 3.34	69.2							
	0.0969 ± 0.00133	C[C@H]1[C@H](C)CC[C@]2(C(=O)O)CC[C@]3(C)C(=CC[C@@H]4[C@@]5(C)CC[C@H](O)C(C)(C)[C@@H]5CC[C@]43C)[C@H]12 [Ursolic acid, reference compound]									
51.2 ± 5.5	> 1	OC[C@H]1O[C@@H](Oc2cc(O)cc(/C=C/c3ccc(O)cc3)c2)[C@H](O)[C@@H](O)[C@@H]1O [Compound 2, trans-Piceid]			136 ± 3.36	132 ± 6.52	116 ± 6.39				
19.8 ± 0.77	> 1	Oc1ccc(/C=C/c2cc(O)cc(O)c2)cc1 [Compound 4, Resveratrol]			82.3 ± 1.18	27.3 ± 5.83	17.3 ± 0.01		70.4 to 91	greatly decreased	72.7 to 82.7
> 100	> 1	O=c1cc(-c2ccc(O)cc2)oc2cc(O)cc(O)c12 [Compound 6, Apigenin]			83.6 ± 3.01	63.2 ± 2.11	16.2 ± 1.52		70.4 to 91		
